Key:
dengue virus type 2 = test: Antiviral activity against eGPF-labeled DENV2 16681 infected in African green monkey Vero cells measured after 3 days by fluorescence microscopic analysis; type: functional, cell-based
[1] = Cytotoxicity against African green monkey Vero cells infected with eGPF-labeled DENV2 16681 assessed as reduction in cell viability measured after 3 days by ATPlite assay; type: toxicity, cell-based; conditions: chlorocebus sabaeus; for CC50: vero, 72 h; for CC50 at 72 h: Vero cells infected with eGFP-labeled DENV2 16681
[2] = Selectivity index, ratio of CC50 for African green monkey Vero cells infected with eGPF-labeled DENV2 16681 to EC50 for DENV2 16681 expressing eGPF infected in African green monkey Vero cells

Structure (SMILES) | EC50 (dengue virus type 2) [nM] | CC50 [1] [nM] | Ratio CC50/EC50 [2] | CC50 at 72 h [1] [nM]
COc1cc(NC(C(=O)c2c[nH]c3c(C)c(F)ccc23)c2ccc(Cl)cc2OC)cc(S(C)(=O)=O)c1 (single isomer, unassigned; enantiomer 2) | 26 | 7400 | 285 | –
COc1cc(NC(C(=O)c2c[nH]c3ccc(OC(F)(F)F)cc23)c2ccc(Cl)cc2OC)cc(S(C)(=O)=O)c1 (single isomer, unassigned; enantiomer 2) | 3.8 | 6200 | 1480 | –
COc1cc(NC(C(=O)c2c[nH]c3cc(OC)c(C)cc23)c2ccc(Cl)cc2OC)cc(S(C)(=O)=O)c1 (single isomer, unassigned) | 0.27 | 4200 | 16900 | –
COc1cc(NC(C(=O)c2c[nH]c3cc(F)ccc23)c2ccc(Cl)cc2OC)cc(S(C)(=O)=O)c1 (single isomer, unassigned; enantiomer 2) | 12 | 6500 | 530 | –
COc1cc(NC(C(=O)c2c[nH]c3cc(F)c(C)cc23)c2ccc(Cl)cc2OC)cc(S(C)(=O)=O)c1 (single isomer, unassigned; enantiomer 1) | 13 | 6800 | 538 | –
COc1cc(NC(C(=O)c2c[nH]c3c(C)cc(OC(F)(F)F)cc23)c2ccc(Cl)cc2OC)cc(S(C)(=O)=O)c1 (single isomer, unassigned; enantiomer 2) | 4.1 | 9200 | 22200 | –
COc1cc(NC(C(=O)c2c[nH]c3cc(F)ccc23)c2ccc(Cl)cc2OC)cc(S(C)(=O)=O)c1 (single isomer, unassigned; enantiomer 1) | 0.26 | 4300 | 19700 | –
COc1cc(NC(C(=O)c2c[nH]c3c(C)cc(OC(F)(F)F)cc23)c2ccc(Cl)cc2OC)cc(S(C)(=O)=O)c1 (stereo in doubt; 11A) | 0.085 | 2600 | 30100 | –
COc1cc(NC(C(=O)c2c[nH]c3cc(F)ccc23)c2ccc(Cl)cc2OC)cc(S(C)(=O)=O)c1 (racemic) | 0.52 | – | 11500 | 5500
COc1cc(NC(C(=O)c2c[nH]c3c(C)c(F)ccc23)c2ccc(Cl)cc2OC)cc(S(C)(=O)=O)c1 (single isomer, unassigned; enantiomer 1) | 0.26 | – | 22000 | 4800
COc1cc(NC(C(=O)c2c[nH]c3ccc(OC(F)(F)F)cc23)c2ccc(Cl)cc2OC)cc(S(C)(=O)=O)c1 (single isomer, unassigned; enantiomer 1) | 0.067 | 2900 | >37500 | –
COc1cc(NC(C(=O)c2c[nH]c3cc(OC)c(C)cc23)c2ccc(Cl)cc2OC)cc(S(C)(=O)=O)c1 (single isomer, unassigned; enantiomer 2) | 36 | 12000 | 341 | –
COc1cc(NC(C(=O)c2c[nH]c3cc(F)c(C)cc23)c2ccc(Cl)cc2OC)cc(S(C)(=O)=O)c1 (single isomer, unassigned; enantiomer 2) | 0.2 | 3200 | 18500 | –
